# Laboratory results reported in paper PMC5904222, “Synthesis and anticancer activity of multisubstituted purines and xanthines with one or two propynylthio and aminobutynylthio groups” (Medicinal Chemistry Research, 2018).
# System: SNB-19 (human glioblastoma)
# Assay: WST-1 proliferation assay, SNB-19
# Format: cell-based
# Details: Homo sapiens, SNB-19, 72 h, SNB-19 cells, 72 h exposure, read-out: Antiproliferative activity IC50 SNB-19
# Method: (§1) Compounds were evaluated for their anticancer activity using three cultured cell lines: SNB-19 (human glioblastoma, DSMZ - German Collection of Microorganisms and Cell Cultures, Braunschweig, Germany), C-32 (human amelanotic melanoma, ATCC-American Type Culture Collection, Manassas, VA, USA), MDA-MB-231 (human adenocarcinoma mammary gland, ATCC, Manassas, VA, USA), and HFF-1 (human fibroblast cell line, ATCC, Manassas, VA, USA). The cultured cells were kept at 37 °C and 5% CO2. The cells were seeded (1 × 10^4 cells/well/100 μL DMEM supplemented with 10% FCS and streptomycin and penicillin) using 96-well plates (Corning). The cells were counted in a hemocytometer (Burker’s chamber) using a phase contrast Olympus IX50 microscope equipped with Sony SSC-DC58 AP camera and Olympus DP10 digital camera.
# (§2) The antiproliferative effect of the compounds obtained from both the cancer and the normal cells was determined using the Cell Proliferation Reagent WST-1 assay (Roche Diagnostics, Mannheim, Germany). This colorimetric assay is based on the viable cell’s ability to cause the bright red-colored stable tetrazolium salt (2-(4-iodophenyl)-3-(4-nitrophenyl)-5-(2,4-disulfophenyl)-2H-tetrazolium, monosodium salt) to cleave to the dark red soluble formazan by cellular enzymes. An expansion in the number of viable cells results in an increase in the overall activity of mitochondrial dehydrogenases in the sample. An increase in the amount of formazan dye formed correlates to the number of metabolically active cells in the culture. The formazan dye produced by metabolically active cells is quantified by a scanning ELISA reader that measures the absorbance of the dye solution at appropriate wavelengths. The examined cells were exposed to the tested compounds for 72 h at various concentrations between 0.1 and 100 μg/mL (prepared initially at a concentration of 1 mg/mL in DMSO). The control was performed in order to check that DMSO has no effect on the cells at the concentration used. The cells were incubated with WST-1 (10 μL) for 1 h and the absorbance of the samples was measured against a background control at 450 nm using a microplate reader with a reference wavelength at 600 nm. The results are expressed as the means of at least two independent experiments performed in triplicate. […] The IC50 values (a concentration of a compound that is required for 50% inhibition) were calculated from the dose–response relationship with respect to control.
row,IC50 [µg/mL],Compound
1,177,"Cn1c(SCC#CCN2CCCC2)nc2c1c(=O)[nH]c(=O)n2C [Compound 10a, 8-(4-N-pyrrolidinylbut-2-ynylthio)-3,7-dimethylxanthine]"
2,166,"Cn1c(SCC#CCN2CCCCC2)nc2c1c(=O)[nH]c(=O)n2C [Compound 10b, 8-(4-N-piperidinylbut-2-ynylthio)-3,7-dimethylxanthine]"

# More lines, now with the values behind:
row,Compound,IC50 [µg/mL]
1,"Cn1c(SCC#CCN2CCOCC2)nc2c1c(=O)[nH]c(=O)n2C [Compound 10c, 8-(4-N-morpholinylbut-2-ynylthio)-3,7-dimethylxanthine]",< 1.7
2,"CCN(CC)CC#CCSc1nc2c(c(=O)[nH]c(=O)n2C)n1C [Compound 10d, 8-(4-diethylaminobut-2-ynylthio)-3,7-dimethylxanthine]",< 1.7
3,"Cn1c(SCC#CCN2CCCC2)nc2nc(Cl)nc(SCC#CCN3CCCC3)c21 [Compound 15a, 2-Chloro-6,8-di(4-N-pyrrolidinylbut-2-ynylthio)-7-methylpurine]",< 1

# Same assay, conditions: SNB-19 cells, 72 h exposure
row,Antiproliferative activity IC50 SNB-19 [µg/mL],Compound
1,1.69,"Cn1c(SCC#CCN2CCOCC2)nc2c1c(=O)[nH]c(=O)n2C [Compound 10c, 8-(4-N-morpholinylbut-2-ynylthio)-3,7-dimethylxanthine]"
2,1.48,"CCN(CC)CC#CCSc1nc2c(c(=O)[nH]c(=O)n2C)n1C [Compound 10d, 8-(4-diethylaminobut-2-ynylthio)-3,7-dimethylxanthine]"
3,0.52,"Cn1c(SCC#CCN2CCCC2)nc2nc(Cl)nc(SCC#CCN3CCCC3)c21 [Compound 15a, 2-Chloro-6,8-di(4-N-pyrrolidinylbut-2-ynylthio)-7-methylpurine]"

# System: C-32 (human amelanotic melanoma)
# Assay: WST-1 proliferation assay, C-32
# Format: cell-based
# Details: C-32 cells, 72 h exposure
# Method: as §1, §2
row,Antiproliferative activity IC50 C-32 [µg/mL],Compound
1,4.55,"Cn1c(SCC#CCN2CCCC2)nc2nc(Cl)nc(SCC#CCN3CCCC3)c21 [Compound 15a, 2-Chloro-6,8-di(4-N-pyrrolidinylbut-2-ynylthio)-7-methylpurine]"

# Same assay, conditions: Homo sapiens, C32, 72 h, C-32 cells, 72 h exposure, read-out: Antiproliferative activity IC50 C-32
row,IC50 [µg/mL],Compound
1,51.1,"Cn1c(SCC#CCN2CCCC2)nc2c1c(=O)[nH]c(=O)n2C [Compound 10a, 8-(4-N-pyrrolidinylbut-2-ynylthio)-3,7-dimethylxanthine]"
2,355,"Cn1c(SCC#CCN2CCCCC2)nc2c1c(=O)[nH]c(=O)n2C [Compound 10b, 8-(4-N-piperidinylbut-2-ynylthio)-3,7-dimethylxanthine]"

# Second part, the compound before the results:
row,Compound,IC50 [µg/mL]
1,"Cn1c(SCC#CCN2CCOCC2)nc2c1c(=O)[nH]c(=O)n2C [Compound 10c, 8-(4-N-morpholinylbut-2-ynylthio)-3,7-dimethylxanthine]",223
2,"CCN(CC)CC#CCSc1nc2c(c(=O)[nH]c(=O)n2C)n1C [Compound 10d, 8-(4-diethylaminobut-2-ynylthio)-3,7-dimethylxanthine]",26.4
3,"Cn1c(SCC#CCN2CCCC2)nc2nc(Cl)nc(SCC#CCN3CCCC3)c21 [Compound 15a, 2-Chloro-6,8-di(4-N-pyrrolidinylbut-2-ynylthio)-7-methylpurine]",3.8 to 4.5

# System: MDA-MB-231 (human adenocarcinoma mammary gland)
# Assay: WST-1 proliferation assay, MDA-MB-231
# Format: cell-based
# Details: Homo sapiens, MDA-MB-231, 72 h, MDA-MB-231 cells, 72 h exposure, read-out: Antiproliferative activity IC50 MDA-MB-231
# Method: as §1, §2
row,IC50 [µg/mL],Compound
1,472,"Cn1c(SCC#CCN2CCCC2)nc2c1c(=O)[nH]c(=O)n2C [Compound 10a, 8-(4-N-pyrrolidinylbut-2-ynylthio)-3,7-dimethylxanthine]"
2,364,"Cn1c(SCC#CCN2CCCCC2)nc2c1c(=O)[nH]c(=O)n2C [Compound 10b, 8-(4-N-piperidinylbut-2-ynylthio)-3,7-dimethylxanthine]"

# Continued, compound first:
row,Compound,IC50 [µg/mL]
1,"Cn1c(SCC#CCN2CCOCC2)nc2c1c(=O)[nH]c(=O)n2C [Compound 10c, 8-(4-N-morpholinylbut-2-ynylthio)-3,7-dimethylxanthine]",6.54
2,"CCN(CC)CC#CCSc1nc2c(c(=O)[nH]c(=O)n2C)n1C [Compound 10d, 8-(4-diethylaminobut-2-ynylthio)-3,7-dimethylxanthine]",68.1
3,"Cn1c(SCC#CCN2CCCC2)nc2nc(Cl)nc(SCC#CCN3CCCC3)c21 [Compound 15a, 2-Chloro-6,8-di(4-N-pyrrolidinylbut-2-ynylthio)-7-methylpurine]",3.8 to 4.5

# Same assay, conditions: MDA-MB-231 cells, 72 h exposure
row,Antiproliferative activity IC50 MDA-MB-231 [µg/mL],Compound
1,3.83,"Cn1c(SCC#CCN2CCCC2)nc2nc(Cl)nc(SCC#CCN3CCCC3)c21 [Compound 15a, 2-Chloro-6,8-di(4-N-pyrrolidinylbut-2-ynylthio)-7-methylpurine]"

# System: HFF-1 (human fibroblast cell line)
# Assay: WST-1 proliferation assay, normal fibroblasts HFF-1
# Format: cell-based
# Details: normal human fibroblasts HFF-1, 72 h exposure, WST-1; read-out: Antiproliferative activity IC50 HFF-1
# Method: as §1
# as §2, with “The control was performed in order to check that DMSO has no effect on the cells at the concentration used.” left out
row,Compound,IC50 [µg/mL]
1,"Cn1c(SCC#CCN2CCCC2)nc2c1c(=O)[nH]c(=O)n2C [Compound 10a, 8-(4-N-pyrrolidinylbut-2-ynylthio)-3,7-dimethylxanthine]",34.3
2,"Cn1c(SCC#CCN2CCCCC2)nc2c1c(=O)[nH]c(=O)n2C [Compound 10b, 8-(4-N-piperidinylbut-2-ynylthio)-3,7-dimethylxanthine]",30.4
3,"Cn1c(SCC#CCN2CCOCC2)nc2c1c(=O)[nH]c(=O)n2C [Compound 10c, 8-(4-N-morpholinylbut-2-ynylthio)-3,7-dimethylxanthine]",5.87
4,"CCN(CC)CC#CCSc1nc2c(c(=O)[nH]c(=O)n2C)n1C [Compound 10d, 8-(4-diethylaminobut-2-ynylthio)-3,7-dimethylxanthine]",3.68
5,"Cn1c(SCC#CCN2CCCC2)nc2nc(Cl)nc(SCC#CCN3CCCC3)c21 [Compound 15a, 2-Chloro-6,8-di(4-N-pyrrolidinylbut-2-ynylthio)-7-methylpurine]",3.63

# System: not given
# Assay: not given
# Details: not given
row,melting point [°C],Compound
1,195 to 197,"Cn1c(SCC#CCN2CCCC2)nc2c1c(=O)[nH]c(=O)n2C [Compound 10a, 8-(4-N-pyrrolidinylbut-2-ynylthio)-3,7-dimethylxanthine]"
2,223 to 225,"Cn1c(SCC#CCN2CCCCC2)nc2c1c(=O)[nH]c(=O)n2C [Compound 10b, 8-(4-N-piperidinylbut-2-ynylthio)-3,7-dimethylxanthine]"

# The next lines start with the compound.
row,Compound,melting point [°C]
1,"Cn1c(SCC#CCN2CCOCC2)nc2c1c(=O)[nH]c(=O)n2C [Compound 10c, 8-(4-N-morpholinylbut-2-ynylthio)-3,7-dimethylxanthine]",174 to 176
2,"CCN(CC)CC#CCSc1nc2c(c(=O)[nH]c(=O)n2C)n1C [Compound 10d, 8-(4-diethylaminobut-2-ynylthio)-3,7-dimethylxanthine]",186 to 188
3,"Cn1c(SCC#CCN2CCCC2)nc2nc(Cl)nc(SCC#CCN3CCCC3)c21 [Compound 15a, 2-Chloro-6,8-di(4-N-pyrrolidinylbut-2-ynylthio)-7-methylpurine]",133 to 135
